Source: ChEMBL document CHEMBL4007391, “Tackling Fungal Resistance by Biofilm Inhibitors” (J Med Chem, 2017)
Where a name gives a salt, the structure may show the parent alone. Each block holds one molecule with its values, some of them ahead of it.

Key:
[1] = Toxicity in mouse; type: organism-based; conditions: in vivo
Candida albicans [2] = experiment: Antibiofilm activity against Candida albicans SC5314 after 24 hrs by XTT assay; type: functional; conditions: SC5314, 24 h
[3] = Cytotoxicity against human HepG2 assessed as reduction in cell viability after 24 hrs by CellTiter-Glo luminescent assay; type: cell-based; conditions: HepG2 cells
Candida albicans [4] = experiment: Antibiofilm activity against Candida albicans CAF2-1 after 48 hrs by Alamar blue assay; type: functional; conditions: CAF2-1, 48 h
Candida albicans [5] = experiment: Antibiofilm activity against Candida albicans SC5314 after 48 hrs by Alamar blue assay; type: functional; conditions: SC5314, 48 h
Candida albicans [6] = experiment: Antibiofilm activity against fluconazole-resistant Candida albicans 29E clinical isolates after 48 hrs by Alamar blue assay; type: functional
Candida albicans [7] = experiment: Inhibition of filament formation of tet-NRG1 expressing Candida albicans after 2 to 24 hrs; type: functional
Candida albicans [8] = experiment: Antibiofilm activity against Candida albicans SC5314 clinical isolates after 24 hrs by XTT assay; type: functional; conditions: Candida albicans, SC5314, 24 h
Candida albicans [9] = experiment: Antibiofilm activity against Candida albicans DAY185 after 24 hrs by XTT assay; type: functional
Candida albicans [10] = experiment: Antifungal activity against Candida albicans DAY185 by CLSI method; type: functional
Candida [11] = experiment: Antifungal activity against Candida after 48 hrs by broth microdilution assay; type: functional
Candida [12] = experiment: Antifungal activity against drug-resistant Candida spp. clinical isolates after 48 hrs by broth microdilution assay; type: functional
Candida albicans [13] = experiment: Antibiofilm activity against Candida albicans SC5314 after 24 hrs in presence of miconazole by Cell-Titer Blue assay; type: functional

SMILES: NC1C2CC3CC(C2)CC1C3 (stereo unspecified)
LD50 [1]: 250 mg/kg

SMILES: Nc1cc(S(N)(=O)=O)ccc1SSc1ccc(S(N)(=O)=O)cc1N
IC50 (Candida albicans [2]): 3.45 µM | CC50 at 24 h [3]: 106 µM

SMILES: CCN1/C(=C\c2ccc3ccccc3[n+]2CC)Sc2cc(C)ccc21
IC50 (Candida albicans [4]): 2.8 to 82.1 µM | IC50 (Candida albicans [5]): 2.8 to 82.1 µM | IC50 (Candida albicans [6]): 2.8 to 82.1 µM

SMILES: CCN1/C(=C/c2ccc3cc(C)ccc3[n+]2CC)Sc2cc(C)c(C)cc21
IC50 (Candida albicans [4]): 231 to 268 µM | IC50 (Candida albicans [5]): 231 to 268 µM | IC50 (Candida albicans [6]): 231 to 268 µM

SMILES: Cc1ccccc1OCc1n(CC(=O)OC2CC(C)CCC2C(C)C)c2ccccc2[n+]1C (stereo unspecified)
IC50 (Candida albicans [4]): 9.8 to 24.3 µM | IC50 (Candida albicans [5]): 9.8 to 24.3 µM | IC50 (Candida albicans [6]): 9.8 to 24.3 µM

SMILES: CCC(CO)N1C(C)=CC(=Cc2sc3ccccc3[n+]2Cc2ccccc2)C=C1C (stereo unspecified)
IC50 (Candida albicans [4]): 1.7 to 119 µM | IC50 (Candida albicans [5]): 1.7 to 119 µM | IC50 (Candida albicans [6]): 1.7 to 119 µM

SMILES: CCN(CC)CCN1c2ccccc2Sc2ccc3ccccc3c21
CC50 at 24 h [3]: 50.8 µM | IC50 (Candida albicans [7]): 3.8 µM

SMILES: CC1OC(CC(=O)O)Cc2c(O)c3c(c(O)c21)C(=O)C=C(C1=CC(=O)c2c(O)c4c(c(O)c2C1=O)CC(CC(=O)O)OC4C)C3=O (stereo unspecified)
IC50 (Candida albicans [2]): 3.31 µM | CC50 at 24 h [3]: 96.1 µM

SMILES: Cc1cc(OCCOCC[N+](C)(C)Cc2ccccc2)ccc1C(C)(C)CC(C)(C)C
IC50 (Candida albicans [8]): 8.9 µM

MIC (Candida albicans [10]): > 200 µM
SMILES: CCCCCCCCCC(=O)[C@H]1C(=O)N[C@@H](CC(C)C)C(=O)N[C@H](C)C(=O)N2CCC[C@H]2C(=O)N[C@@H](C(C)C)C(=O)N[C@H]2CS[C@H]1CNC2=O
IC50 (Candida albicans [9]): > 200 µM

MIC (Candida albicans [10]): > 200 µM
SMILES: CCCCCCCCCC(=O)[C@@H]1C(=O)N[C@@H](CC(C)C)C(=O)N[C@H](C)C(=O)N2CCC[C@H]2C(=O)N[C@@H](C(C)C)C(=O)N[C@H]2CS[C@H]1CNC2=O
IC50 (Candida albicans [9]): 3.4 µM

SMILES: Cc1c(CN2CCC3(CCCN(Cc4ccc(C(C)C)cc4)C3=O)C2)cnn1C (stereo unspecified)
IC50 (Candida albicans [2]): 3.15 µM | CC50 at 24 h [3]: 62.7 to 104 µM

MIC (Candida albicans [10]): > 200 µM
SMILES: CCCCCCCCCC(=O)[C@@H]1C(=O)N[C@@H](CC(C)C)C(=O)N[C@H](C)C(=O)N2CCC[C@H]2C(=O)N[C@@H]([C@@H](C)CC)C(=O)N[C@H]2CS[C@H]1CNC2=O
IC50 (Candida albicans [9]): 9.1 µM

SMILES: CC[C@@]1([C@@H]2O[C@@H]([C@H]3O[C@@](O)(CO)[C@H](C)C[C@@H]3C)C[C@@H]2C)CC[C@H]([C@]2(C)CCC3(C[C@H](O)[C@@H](C)[C@@H]([C@@H](C)[C@@H](OC)[C@H](C)C(=O)O)O3)O2)O1 (stereo partly specified)
IC50 (Candida albicans [8]): 6.4 µM

SMILES: CC(C)c1ccc(CN2CCCC3(CCN(CC4CCSCC4)C3)C2=O)cc1 (stereo unspecified)
IC50 (Candida albicans [2]): 3.36 µM | CC50 at 24 h [3]: 62.7 to 104 µM

SMILES: CC[C@H](C)[C@H](N)C1=N[C@H](C(=O)N[C@@H](CC(C)C)C(=O)N[C@H](CCC(=O)O)C(=O)N[C@@H](C(=O)N[C@@H]2CCCCNC(=O)[C@H](CC(N)=O)NC(=O)[C@@H](CC(=O)O)NC(=O)[C@H](Cc3cnc[nH]3)NC(=O)[C@@H](Cc3ccccc3)NC(=O)[C@H]([C@@H](C)CC)NC(=O)[C@@H](CCCN)NC2=O)[C@@H](C)CC)CS1
IC50 (Candida albicans [2]): 2.13 µM | CC50 at 24 h [3]: 286 µM

MIC (Candida albicans [10]): > 200 µM
SMILES: CCCCCCCCCC(=O)C1C(=O)N[C@@H](CC(C)C)C(=O)N[C@H](C)C(=O)N2CCC[C@H]2C(=O)N[C@@H](C(C)C)C(=O)N[C@@H](CC)C(=O)NCC1O (stereo partly specified)
IC50 (Candida albicans [9]): 5.3 µM

SMILES: CC[C@H](C)C1NC(=O)[C@@H](CCCN)NC(=O)[C@@H](NC(=O)[C@@H](NC(=O)[C@@H](CCC(=O)O)NC(=O)[C@H](CC(C)C)NC(=O)[C@@H]2CSC([C@@H](N)[C@@H](C)CC)=N2)[C@@H](C)CC)CCCCNC(=O)[C@H](CC(N)=O)NC(=O)[C@@H](CC(=O)O)NC(=O)[C@H](Cc2c[nH]cn2)NC(=O)[C@@H](Cc2ccccc2)NC1=O (stereo partly specified)
IC50 (Candida albicans [8]): 17 µM

SMILES: CN(C)c1ccc(/C=C/c2cc(C(C)(C)C)[o+]c(C(C)(C)C)c2)cc1.[O-][Cl+3]([O-])([O-])[O-]
MIC (Candida [11]): 0.2 to 6.25 µg/mL | MIC (Candida [12]): 0.5 to 1 µg/mL

SMILES: CC(C)c1ccc(CN2CCCC3(CCN(Cc4cccnc4)C3)C2=O)cc1 (stereo unspecified)
IC50 (Candida albicans [2]): 4.59 µM | CC50 at 24 h [3]: 62.7 to 104 µM

SMILES: Cc1ncc(CN2CCC3(CCCN(Cc4ccc(C(C)C)cc4)C3=O)C2)cn1 (stereo unspecified)
IC50 (Candida albicans [2]): 2.7 µM | CC50 at 24 h [3]: 62.7 to 104 µM

SMILES: CO[C@H]1O[C@@H]2O[C@@]3(C)CC[C@H]4[C@H](C)CC[C@@H]([C@H]1C)[C@@]24OO3
fractional inhibitory concentration index (FICI) (Candida albicans [13]): 0.112

SMILES: CCCCC(CC)CNC(=N)NC(=N)NCCCCCCNC(=N)NC(=N)NCC(CC)CCCC (stereo unspecified) [ALEXIDINE DIHYDROCHLORIDE]
IC50 (Candida albicans [8]): 5.4 µM

SMILES: C[C@@H]1CC[C@H]2[C@@H](C)C(=O)O[C@@H]3O[C@@]4(C)CC[C@@H]1[C@]32OO4 [ARTEMISININ]
fractional inhibitory concentration index (FICI) (Candida albicans [13]): 0.186

SMILES: C[C@H]1[C@@H](O)O[C@@H]2O[C@@]3(C)CC[C@H]4[C@H](C)CC[C@@H]1[C@@]24OO3 [ARTENIMOL]
fractional inhibitory concentration index (FICI) (Candida albicans [13]): 0.145
